Reference: patent publication US20260092037A1, “CRYSTALLINE SALT FORMS OF N-((1-(2-(TERT-BUTYLAMINO)-2-OXOETHYL)PIPERIDIN-4-YL) METHYL)-3-CHLORO-5-FLUOROBENZAMIDE AND METHODS OF USE THEREOF” (priority 2023, published 2026)
Read-outs that look alike come from different tables or passages of the source.

Experiments:
[1] = X-ray powder diffraction (XRPD) of salt screen and scale-up products; assay type: physicochemical; conditions: salt screen
Excerpt: The Rigaku Smart-Lab X-ray diffraction system was configured for reflection Bragg-Brentano geometry using a line source X-ray beam. The x-ray source is a Cu Long Fine Focus tube that was operated at 40 kV and 44 ma. That source provides an incident beam profile at the sample that changes from a narrow line at high angles to a broad rectangle at low angles. Beam conditioning slits are used on the line X-ray source to ensure that the maximum beam size is less than 10 mm both along the line and normal to the line. The Bragg-Brentano geometry is a para-focusing geometry controlled by passive divergence and receiving slits with the sample itself acting as the focusing component for the optics. The inherent resolution of Bragg-Brentano geometry is governed in part by the diffractometer radius and the width of the receiving slit used. Typically, the Rigaku Smart-Lab is operated to give peak widths of 0.1° 2θ or less. The axial divergence of the X-ray beam is controlled by 5.0-degree Soller slits in both the incident and diffracted beam paths.
Powder samples were prepared in a low background Si holder using light manual pressure to keep the sample surfaces flat and level with the reference surface of the sample holder. Each sample was analyzed from 2 to 40° 2θ using a continuous scan of 6° 2θ per minute with an effective step size of 0.02° 2θ.

absence seizures = conditions: childhood absence epilepsy, cited from earlier work
[2] = at 16 weeks, as assessed by video-EEG recordings

## CC(=O)O [Acetate]
[1]; E (evaporation), EtOH
  XRPD Pattern: API A (PO)
[1]; Grind, ACN
  XRPD Pattern: API A

## O=CO [Formate]
[1]; E (evaporation), EtOH
  XRPD Pattern: API A (PO)
[1]; Grind, ACN
  XRPD Pattern: API A

## N[C@@H](CCC(=O)O)C(=O)O [Glutamate]
[1]; Grind, ACN/water (9:1)
  XRPD Pattern: API A + acid
[1]; SL, ACN, 50° C.
  XRPD Pattern: API A + acid

## O=S(=O)(O)CCO [Isethionate]
[1]; Grind, ACN
  XRPD Pattern: API A + NC

## CC(C)C(=O)O [Isobutyrate]
[1]; E, MeOH
  XRPD Pattern: API A
[1]; Grind, ACN
  XRPD Pattern: API A

## O=C(O)CCC(=O)C(=O)O [Ketoglutarate]
[1]; E, MeOH/ACN (1:1)
  XRPD Pattern: NC + pks
[1]; Grind, ACN
  XRPD Pattern: API A + NC

## Nc1nnc(-c2cccc(Cl)c2Cl)c(N)n1 [Lamotrigine]
Absence seizures; at 12 months
  patients in whom the seizures were completely controlled: 21%
Absence seizures; [2]
  patients in whom the seizures were completely controlled: 29%

## CCC1(C)CC(=O)NC1=O (stereo not shown) [ethosuximide]
Absence seizures; at 12 months
  patients in whom the seizures were completely controlled: 45%
Absence seizures; [2]
  patients in whom the seizures were completely controlled: 53%

## Alginate
[1]; Grind, IPA
  XRPD Pattern: API A

## Ascorbate
[1]; E (evaporation), EtOH
  XRPD Pattern: API A (PO)
[1]; Grind, ACN
  XRPD Pattern: API A + acid

## Benzoate
[1]; E (evaporation), EtOH
  XRPD Pattern: API A + NC
[1]; Grind, ACN
  XRPD Pattern: API A + NC
[1]; SL, IPE, RT
  XRPD Pattern: API A

## Camphorate
[1]; E (evaporation), EtOH
  XRPD Pattern: API A (PO)
[1]; Grind, ACN
  XRPD Pattern: API A + acid

## Caprate
[1]; E (evaporation), EtOH
  XRPD Pattern: API A (PO)
[1]; Grind, ACN
  XRPD Pattern: API A + pks

## Caprylate
[1]; E (evaporation), EtOH
  XRPD Pattern: API A (PO)
[1]; Grind, ACN
  XRPD Pattern: API A

## Citrate
[1]; Grind, EtOAc
  XRPD Pattern: API A + acid + NC

## Gentisate
[1]; Grind, BuOAc
  XRPD Pattern: API A + NC

## Gluconate
[1]; E, MeOH/toluene (1:1), RT
  XRPD Pattern: API A
[1]; Grind, ACN
  XRPD Pattern: API A
[1]; LY, dioxane/water
  XRPD Pattern: API A + NC

## Glucuronate
[1]; Grind, acetone
  XRPD Pattern: API A + pks
[1]; LY, dioxane/water
  XRPD Pattern: API A + NC

## Hippurate
[1]; E (evaporation), EtOH
  XRPD Pattern: API A + NC
[1]; Grind, IPA
  XRPD Pattern: API A + acid

## Laurate
[1]; E, MeOH
  XRPD Pattern: API A + acid + pks
[1]; Grind, ACN
  XRPD Pattern: API A + acid + pks

## Malate
[1]; Grind, IPA
  XRPD Pattern: API A + NC

## Oleate
[1]; E, MeOH
  XRPD Pattern: API A (PO)
[1]; Grind, ACN
  XRPD Pattern: API A + NC

## Palmitate
[1]; E, MeOH
  XRPD Pattern: API A + acid
[1]; Grind, ACN
  XRPD Pattern: API A + acid

## Propionate
[1]; E, MeOH
  XRPD Pattern: API A
[1]; Grind, ACN
  XRPD Pattern: API A

## Pyroglutamate
[1]; Grind, MEK
  XRPD Pattern: API A + pks

## Stearate
[1]; E, MeOH
  XRPD Pattern: API A + acid
[1]; Grind, ACN
  XRPD Pattern: API A + acid

## Tartrate
[1]; Grind, IPA
  XRPD Pattern: API A + acid + NC
